Measurements taken from patent US20090088482A1, “Compositions and Methods For Treating Heart Failure” (The Trustees Of Columbia University In The City New York, priority 2003, published 2009).

Legend:
[1] = tested on: rats with chronic heart failure induced by coronary artery ligation; test: Echocardiography and direct hemodynamic monitoring in rats with chronic heart failure induced by coronary artery ligation (Example 2); assay type: in vivo; details: 2 mg/kg/day oral, 8 weeks
Procedure: (§1) Chronic heart failure was induced by coronary artery ligation in rats, and was confirmed by echocardiography, three weeks post-surgery. Three groups of rats were studied: (1) Chronic heart failure without clenbuterol (n=7); (2) chronic heart failure+clenbuterol (2 mg/kg/day; n=5); and (3) rats after sham operation (n=11). After 8 weeks of oral clenbuterol therapy, echocardiography and direct hemodynamic monitoring were performed. Rat hearts were then harvested for ex vivo left ventricular pressure-volume relationship (LVPVR) tracings, histologic (trichrome) sections, and molecular assays. Western analysis for myocardial calcium-handling proteins (ryanodine receptors (RyR), SERCA2a, phospholamban, and calcium-sodium exchanger) was assessed by densitometry.

[2] = tested on: ryanodine receptors (RyR); test: Western analysis of myocardial calcium-handling proteins by densitometry: RyR (Example 2); assay type: in vivo, rats; details: 2 mg/kg/day oral, 8 weeks, untreated CHF 1.6±0.4, Sham 2.8±0.8
Procedure: as §1

SERCA2a = test: Western analysis of myocardial calcium-handling proteins by densitometry: SERCA2a (Example 2); assay type: in vivo, rats; details: 2 mg/kg/day oral, 8 weeks, untreated CHF 1.7±0.5, Sham 2.2±0.4
Procedure: as §1

[3] = tested on: rats with HF induced by LAD ligation; test: Ex vivo end-diastolic pressure-volume relationships (EDPVR) (Example 5); assay type: in vivo, Sprague-Dawley rats; details: for passive LV Volume at 30 mmHg, normalized for heart weight: ex vivo EDPVR, HF 0.50, Sham 0.36
Procedure: A total of 69 rats were used in this study. LAD ligation surgery was performed in 60 rats, of which 37 (62%) survived three weeks post-surgery. Another 9 rats underwent a sham operation (group Sham), with 7 (78%) survivors. Three weeks post-operatively, echocardiography was performed to establish the baseline level of HF (as measured by fractional shortening). The LAD ligation rats were divided into 4 treatment groups matched for the degree of HF and were randomly assigned to one of the following therapies for 9 additional weeks: (1) rats receiving no therapy (group HF, n=9); (2) rats receiving high-dose clenbuterol at 1 mg/kg/day (group Clen, n=9); (3) rats receiving high-dose metoprolol at 200 mg/kg/day (group Meto, n=9); or (4) rats receiving concurrent high-dose clenbuterol at 1 mg/kg/day and high-dose metoprolol therapy at 200 mg/kg/day (group Clen+Meto, n=10).
An 18-gauge angiocatheter was placed into the LV through the aortic valve and connected to a three-way stopcock. A fine hemostat was placed on the atrial side of the mitral annulus to seal the LV. After eliminating any air from the system, LV pressures were measured using a […] Millar micromanometer introduced through the angiocatheter. While recording LV pressure using an analog-to-digital conversion reading system (Chart 4, version 4.2.4; ADInstruments, Colorado Springs, Colo.), saline was infused into the LV cavity in 50 μL increments using a calibrated 1 mL syringe. The infused fluid was withdrawn and measured to ensure that no leakage had occurred. Data was utilized only if >95% of the injected volume was recovered. Using commercial software (Igor Pro, version 4.0.5.1; WaveMetrics, Lake Oswego, Oreg.), values of LV pressure (P) and volume (V) were fitted according to the equation: […]
where β is the base constant and α is an index of ventricular stiffness, as previously described (Mirsky I. Assessment of passive elastic stiffness of cardiac muscle: mathetical concepts, physiologic and clinical considerations, directions of future research. Prog Cardiovasc Dis. 1976; 18:277-308). […]

ryanodine receptor (RyR) = test: Western blot of calcium-handling protein expression: RyR (Example 5); assay type: in vivo, Sprague-Dawley rats; details: FIG. 6; not different from Sham
Procedure: (§2) Five rat hearts from each group (HF, Clen, Meto, Clen+Meto, and Sham) were randomly selected and used for analysis of calcium-handling protein expression levels. Lysates of LV tissue were obtained with the use of a homogenizer (Brinkmann Instruments, Westbury, N.Y.). Approximately 150 mg of heart tissue was placed in a seven-fold volume of lysis buffer (20 mM/L Na-HEPES, 4 mM/L EGTA, 1 mM/L DTT, pH 7.4) in the presence of proteinase inhibitors (0.1 mM/L leupeptin and 0.3 mM/L PMSF). The protein concentration was determined using a protein assay kit (Bio-Rad Laboratories, Hercules, Calif.). Samples (50 μg) were denatured at 95° C. and size-fractionated using SDS-polyacrylamide gel electrophoresis (PAGE) under reducing conditions. SDS-PAGE was performed using 7.5% separating and 5% stacking gels for SERCA2a and 5% separating and 4% stacking gels for RyR. Electrophoresis was performed in a Miniprotean II cell (Bio-Rad Laboratories, Hercules, Calif.) followed by transfer of proteins (using 34 V overnight at 4° C.) onto nitrocellulose in a mini trans-blot transfer cell (Bio-Rad Laboratories, Hercules, Calif.) filled with transfer buffer (25 m/L Tris-HCl, pH 8.3, 192 mM/L glycine and 20% methanol). […]
(§3) Optical densities of protein level signals were quantified with the use of a laser scanning densitometer (Molecular Dynamics, Palo Alto, Calif.) in a blinded manner. […]

[4] = tested on: sarcoplasmic reticulum calcium-ATPase (SERCA2a); test: Western blot of calcium-handling protein expression: SERCA2a (Example 5); assay type: in vivo, Sprague-Dawley rats; details: FIG. 6; not different from Sham
Procedure: as §2, §3

[5] = ten of 15 LVAD patients; with ACE inhibition, β-1 selective blockade, spironolactone; cited from earlier work

In the case of `CC(C)(C)NCC(O)c1cc(Cl)c(N)c(Cl)c1` (stereo not drawn) [Clen, clenbuterol], the LVEDP ([1]; untreated CHF 27±5, Sham 12±3) was 15±6 mmHg, the “LV fractional area change” value ([1]; untreated CHF 35±3, Sham 53±2) was 42±1% and the LV pressure ([1]; untreated CHF 94±2.8, Sham 114±3.3) was 100±6 mmHg. For the same molecule, the LVdP/dt ([1]; untreated CHF 2,570±384, Sham 3,728±193) was 3,250±325 mmHg/s, the “Protein level of RyR” value [2] was 2.2±0.7 and the “Protein level of SERCA2a” value (SERCA2a) was 2.0±0.2. The “passive LV Volume at 30 mmHg, normalized for heart weight” value [3] was 0.42 mL/gm of heart weight, the “RyR protein expression level relative to tubulin, versus HF group” value (ryanodine receptor (RyR)) was “significantly improved” and the “SERCA2a protein expression level relative to tubulin, versus HF group” value [4] was “significantly improved”. The “rate of myocardial recovery (LVAD explantation for recovery)” value [5] was 67%.

For `COCCc1ccc(OCC(O)CNC(C)C)cc1` (stereo not drawn) [Meto, metoprolol], the “passive LV Volume at 30 mmHg, normalized for heart weight” value [3] was 0.51 mL/gm of heart weight and the “shift of EDPVR curve versus Sham rats” value ([3]; ex vivo, normalized for heart weight) was “rightward shift”.
